# Experimental data: patent US10159736B2, “Plant virus particles for delivery of photosensitive agents” (Case Western Reserve University, priority 2016, dated 2018)
# What was measured:
# B16F10 = conditions: cited from earlier work
# [1] = Storage in the fridge, visual examination; format: physicochemical; conditions: stored in the fridge over a period of a month
# B16F10 melanoma cells [2] = experiment: MTT cell viability assay after white light illumination (Example II)
# Procedure: Untreated cells and drug-free TMV carrier were used as controls. The TMV concentration was normalized to the drug-loaded concentration and corresponded to the highest amount of TMV used to determine the IC50 curves (FIG. 9A). Drug candidates and controls were incubated with B16F10 cells for 8 hours, washed, and then exposed to white light from a Vivitek D950HD projector under a rectangle (10.5 cm×11 cm) for 30 minutes. Following illumination, cells were returned to the incubator for 48 hours. Cell viability was assessed using an MTT cell viability assay and analyzed using GraphPad Prism.
# Cell viability was assayed using MTT and LIVE/DEAD assays. Confluent cells were removed using 0.05% (w/v) trypsin-EDTA, added to 96-well plates (100 μL/well, 2×10^4 cells/mL), and grown overnight. Native TMV, drug loaded Zn-EpPorTMV, vs. free Zn-EpPor were added to cells using 0.025, 0.05, 0.1, 0.25, 0.5, 1.0, and 5.0 μM Zn-EpPor; cells were incubated for 8 hours at 37° C. and 5% CO2. Assays were done in triplicates and repeated at least twice. […] Cell viability was assessed using an MTT cell proliferation assay (ATCC); the procedure was as per manufacturer's recommendation. Alternatively, cell viability and cytotoxicity was determined using the LIVE/DEAD Viability/Cytotoxicity Kit for mammalian cells (ThermoFisher). […] Images were analyzed for percentage cell viability using ImageJ 1.47d.
# RAW 264.7 macrophages = experiment: LIVE/DEAD cell viability assay of macrophages after photodynamic therapy; format: cell-based
# Procedure: Uptake of PS-CPMV* and its efficacy for PDT of RAW 264.7 murine macrophages was initially tested using a LIVE/DEAD cell viability assay in a 96-well plate. The macrophages were allowed 8 h to take up either PS-CPMV* at a concentration of 5.0 μM PS or CPMV, CPMV*, and PS controls normalized according to PS or CPMV concentration. After washing, PDT was initialized using a mirror setup where light from a projector was reflected on the cell plate for 30 min. Cells were incubated overnight, then stained with a combination of calcein-AM and ethidium homodimer-1 to detect live and dead cells, respectively (FIG. 4a).
# RAW 264.7 macrophages were seeded overnight in 96-well plates, with one plate used as a dark control, at a concentration of 10,000 cells/100 μL Dulbecco's modified Eagle's medium (DMEM, Gibco) supplemented with 10% (v/v) fetal bovine serum (FBS, Atlanta Biologicals) and 1% (v/v) penicillin-streptomycin (pen-strep, Life Technologies). Cells were then incubated for 8 h at 37° C. and 5% CO2 with triplicates of CPMV, CPMV*, PS-CPMV*, or PS corresponding to 5.0 μM PS or normalized for nanoparticle concentration accordingly. […] Cell viability was determined using a LIVE/DEAD assay for mammalian cells (Thermo Fisher) following manufacturer's procedures for cell staining and using a Zeiss Axio Observer Z1 motorized FL inverted microscope for imaging. […]
# B16F10 melanoma cells [3] = experiment: LIVE/DEAD cell viability assay of melanoma cells; format: cell-based; conditions: 5.0 μM, 8 hours, light 30 minutes
# Excerpt: The MTT assay is based on a yellow tetrazolium dye that is reduced to purple formazan via NAD(P)H-dependent oxidoreductase enzymes. This reduction is highly dependent on cellular metabolism in the mitochondria and is not high in cells with low cellular metabolic activity. Liu et al., Journal of neurochemistry, 69 (2), 581-93 (1997). Because photosensitizers are known to impact the functionality of the mitochondria, the MTT assay may be compromised as a result of impaired mitochondrial activity. Therefore, LIVE/DEAD cell viability assays were performed to further confirm therapeutic efficacy and cell killing. Cells were incubated with 5.0 μM of free Zn-EpPor or Zn-EpPorTMV, or corresponding controls, for 8 hours, washed, and illuminated for 30 minutes. This drug concentration was based on the MTT assay; it is over four times the IC50 value in B16F10 melanoma and should give maximal cell killing. The LIVE/DEAD assay was applied the next day, imaged, and images were analyzed using ImageJ to determine percent cell viability (FIG. 9B). […] On the contrary, cells exposed to both Zn-EpPor or Zn-EpPorTMV and light had 100% cell killing.
# The staining procedure was as per manufacturer's recommendation.
# B16F10 melanoma cells [4] = experiment: Flow cytometry of cell uptake (Zn-EpPor fluorescence); format: cell-based; conditions: 10^6 particles/cell or corresponding amount of free drug, 8 hours
# Procedure: Cell binding and uptake of the PDT delivery system was measured using both flow cytometry and confocal microscopy. […] Cell uptake was measured as a function of Zn-EpPor fluorescence (FIG. 8A). […] These studies were complemented with confocal microscopy to determine the intracellular fate of Zn-EpPor delivered by TMV. Following an 8-hour incubation of B16F10 cells with Zn-EpPorTMV particles, cells were fixed and stained with wheat germ agglutinin. Confocal fluorescence microscopy confirmed that Zn-EpPor is both taken up by the cells, and also dispersed throughout the cytoplasm (FIG. 8B), allowing it to exert their mechanism of action. The intracellular distribution of the Zn-EpPor drug was consistent with intracellular release of the cargo. We hypothesize that TMV is taken up and trafficked to the endolysosome, as previously reported. Wen et al., Bioconjugate chemistry, 26 (1), 51-62 (2015). […]
# Confluent B16F10 cells were removed using Hank's based cell dissociation buffer (ThermoFisher) and added to 96-well v-bottom plates (200 μL/well, 2.5×10^6 cells/mL). […] Cells were washed 2 times, then resuspended in FACS buffer and analyzed on a BD FACSAria flow cytometer. Live cells were gated and 10,000 events were recorded; all experiments were carried out in triplicate. Data were analyzed on FlowJo 8.6.3 software.
molecule,measurement,setting,value
"C=Cc1c(C)c2cc3nc(c(CC(=O)N[C@@H](CC(=O)O)C(=O)O)c4[nH]c(cc5nc(cc1[nH]2)C(C)=C5CC)c(C)c4C(=O)O)[C@@H](CCC(=O)O)[C@@H]3C [Talaporfin, talaporfin]",IC50,"B16F10; B16F10, previously reported",8.5 µM
"C#Cc1ccc(C2=C3C=CC(=N3)C(c3cc[n+](C)cc3)=c3ccc4[n]3[Zn][n]3c2ccc3C(c2cc[n+](C)cc2)=C2C=CC(=N2)C=4c2cc[n+](C)cc2)cc1.[I-].[I-].[I-] [Zn-EpPor, 5-(4-ethynylphenyl)-10,15,20-tris-(4-methylpyridin-4-ium-1-yl)porphyrin-zinc(II) triiodide]",dispersion on storage,[1],aggregation and sedimentation
same,IC50,"B16F10 melanoma cells [2]; 8 hours incubation, white light 30 minutes, MTT after 48 hours, concentration as Zn-EpPor",0.54 µM
same,cell killing in the dark,B16F10 melanoma cells [2]; no illumination,no cell killing was observed
same,elimination of macrophages after PDT,"RAW 264.7 macrophages; 5.0 μM PS, 8 h uptake, light 30 min, staining next day",completely eliminating the macrophages
same,cytotoxicity in dark controls,RAW 264.7 macrophages; absence of light therapy,no cytotoxicity
same,cell killing,B16F10 melanoma cells [3],100%
same,mean fluorescence intensity (MFI),B16F10 melanoma cells [4],956
porfimir sodium [Photofrin],efficacy in pigmented melanoma,"B16F10; melanin-heavy cells, such as the B16F10 cell line",ineffective
